Experimental data published in paper PMC4079326 (Journal of Medicinal Chemistry, 2014).
Each block holds one compound with its values, some of them ahead of it.

Tests used:
[1] = biological target: AmpC (Escherichia coli, UniProt P00811); format: biochemical
[2] = biological target: TEM-1 (Escherichia coli, UniProt P62593); format: biochemical
[3] = biological target: TEM-30 R244S (Escherichia coli, UniProt P62593, R241S); format: biochemical; details: 4 vs 5 on TEM-30
[4] = data not shown
[5] = biological target: T1, CTX-M-9 (Escherichia coli, UniProt Q9L5C8); format: biochemical; details: class A
[6] = biological target: T1, CTX-M-9; details: read-out: affinity toward CTX-M-9 (Ki); cited from earlier work

SMILES: CC(=O)/C=C/c1c(B(O)O)sc2ccccc12 [Compound 4]
times less active vs AmpC [1]: 8 times
times less active vs class A [2]: 125 times
change of binding vs TEM-30 with respect to compound 5 [3]: less than 1 fold

stability in microbiology assay conditions over time [4]: unstable
gain in affinity vs TEM-1 with respect to starting lead 1 ([2]; class A): 1250 fold
improvement of binding energy vs TEM-1 ([2]; moving from 1 to 5): 11.7 kJ/mol
gain in affinity vs CTX with respect to starting lead 1 [5]: 1250 fold
SMILES: O=C(O)/C=C/c1c(B(O)O)sc2ccccc12 [Compound 5, 3-(2-carboxyvinyl)benzo(b)thiophene-2-boronic acid]

SMILES: O=C(Cc1cccs1)N[C@H](B(O)O)c1cccc(C(=O)O)c1 [SMS2, (1R)-1-(2-thienylacetylamino)-1-(3-carboxyphenyl)methylboronic acid]
Ki [6]: 0.578 µM
